Data published in paper PMC7352759, “S(+)-(2E)-N-(2-Hydroxypropyl)-3-Phenylprop-2-Enamide (KM-568): A Novel Cinnamamide Derivative with Anticonvulsant Activity in Animal Models of Seizures and Epilepsy” (International Journal of Molecular Sciences, 2020).
Where two headings read alike, the source gives them in different places.

Key:
[1] = In vitro metabolism, mouse liver microsomes; format: in vitro ADME
Protocol: Stock solution of KM-568 was prepared in methanol. Mouse liver microsomes (Sigma–Aldrich, Darmstadt, Germany) were carefully thawed on ice before the experiment. A compound tested at concentration 20 μM was preincubated with mouse liver microsomes (0.4 mg/mL) in 100 mM potassium-phosphate buffer (pH 7.4) for 15 min at 37 °C. The biotransformation reaction was started with the addition of NADPH-regenerating system (NADP^+, glucose-6-phosphate, 0.7 U/mL glucose-6-phosphate dehydrogenase in 100 mM potassium-phosphate buffer) (Sigma–Aldrich, Darmstadt, Germany) and the mixture was incubated at 37 °C. Experiments were carried out 30 and 60 min at 37 °C, in duplicates. Negative control without NADPH-regenerating system was also conducted. Biotransformation was stopped by adding cooled 70% perchloric acid. Next, an internal standard (pentoxifylline) was added and samples were centrifuged at 9000 rpm for 10 min at 4 °C. The supernatant was analyzed by means of LC/MS. In vitro half time (t1/2) was established from the slope of the compound depletion curve. Intrinsic clearance (Clint) was obtained from the equation Clint = (volume of incubation [µl]/protein in the incubation [mg]) × 0.693/t1/2 [58, 59].

[2] = system: Frings audiogenic seizure-susceptible mice; assay: Frings audiogenic seizure-susceptible mouse model; format: in vivo; conditions: 0.25 h; for Results (protected/tested animals): Frings mice, i.p.
Protocol: Frings audiogenic seizure-susceptible mice are genetically susceptible to sound-induced reflex seizures. Mice (18–25 g) were administered i.p. compound KM-568 at the doses in the range of 10.0–17.5 mg/kg. Fifteen minutes later, an individual mouse was placed in a round plexiglass jar (15 cm diameter, 18 cm high) and exposed to a sound stimulus of 110 decibels (11 kHz) delivered for 20 sec.

[3] = Ames microplate format (MPF) assay, TA98; conditions: Salmonella typhimurium
From the text: (§1) The Ames microplate format (MPF) mutagenicity assay (Xenometrix, Allschwil, Switzerland) was used to test KM-568 mutagenicity. Growth, exposure, and indicator media, positive control chemicals, and four Salmonella typhimurium strains TA98, TA100, TA1535 and TA1537 were included in the kit. TA100 and TA1535 strains detect base substitution mutations, whereas TA98 and TA1537 indicate frameshift mutations. The strains of bacteria included in a kit are in compliance with the Organization for Economic Cooperation and Development (OECD) 471 Guideline for Testing of Chemicals.
The assay is a liquid microplate modification of the traditional Salmonella test. During the procedure, bacteria are exposed to different concentrations of a test compound for 90 min in a medium containing sufficient histidine to support cell divisions. Then, the cultures are diluted in a pH indicator medium lacking histidine and aliquoted into 48 wells of a 384-well plate. Within 2 days, bacteria that have undergone reversion to amino acid prototrophy will form colonies. Products of bacteria metabolism reduce pH of the medium, changing the color of wells from purple to yellow.
The test procedure provided by Xenometrix and described in detail elsewhere was followed. Bacterial strains were grown overnight (14–16 h) in exposure medium in a shaker incubator and then exposed to KM-568 in 24-well plates for 90 min at 37 °C with agitation. Final KM-568 concentrations in the assay were 0.1, 0.2, and 0.5 mM. After preincubation, the cultures were diluted in the indicator medium and the contents of each 24-well culture were transferred to 48 wells on a 384-well plate and incubated further for 48 h at 37 °C without agitation. After the exposure, the number of wells containing bacteria was scored for yellow wells. […] Pure DMSO was used as a negative control. All doses were performed in triplicate.
The fold increase of revertants relative to the solvent control was determined by dividing the mean number of positive wells at each dose by the solvent control at baseline. The solvent control at baseline was calculated as the mean number of positive wells in the solvent control plus one standard deviation (SD). When an increase of more than twofold relative to the baseline at more than one dose with a dose–response was observed, the sample was classified as positive, whereas when no response > 2 times the baseline and no dose–response was stated, the sample was classified as negative.

[4] = target: T1, human recombinant TRPV1 receptor expressed in CHO cells (Homo sapiens, UniProt Q8NER1); assay: TRPV1 functional assay (agonist and antagonist effects); format: cell-based; conditions: 10 µM
T1 construct: host or cells: CHO cells
T1 sequence (Q8NER1 whole entry): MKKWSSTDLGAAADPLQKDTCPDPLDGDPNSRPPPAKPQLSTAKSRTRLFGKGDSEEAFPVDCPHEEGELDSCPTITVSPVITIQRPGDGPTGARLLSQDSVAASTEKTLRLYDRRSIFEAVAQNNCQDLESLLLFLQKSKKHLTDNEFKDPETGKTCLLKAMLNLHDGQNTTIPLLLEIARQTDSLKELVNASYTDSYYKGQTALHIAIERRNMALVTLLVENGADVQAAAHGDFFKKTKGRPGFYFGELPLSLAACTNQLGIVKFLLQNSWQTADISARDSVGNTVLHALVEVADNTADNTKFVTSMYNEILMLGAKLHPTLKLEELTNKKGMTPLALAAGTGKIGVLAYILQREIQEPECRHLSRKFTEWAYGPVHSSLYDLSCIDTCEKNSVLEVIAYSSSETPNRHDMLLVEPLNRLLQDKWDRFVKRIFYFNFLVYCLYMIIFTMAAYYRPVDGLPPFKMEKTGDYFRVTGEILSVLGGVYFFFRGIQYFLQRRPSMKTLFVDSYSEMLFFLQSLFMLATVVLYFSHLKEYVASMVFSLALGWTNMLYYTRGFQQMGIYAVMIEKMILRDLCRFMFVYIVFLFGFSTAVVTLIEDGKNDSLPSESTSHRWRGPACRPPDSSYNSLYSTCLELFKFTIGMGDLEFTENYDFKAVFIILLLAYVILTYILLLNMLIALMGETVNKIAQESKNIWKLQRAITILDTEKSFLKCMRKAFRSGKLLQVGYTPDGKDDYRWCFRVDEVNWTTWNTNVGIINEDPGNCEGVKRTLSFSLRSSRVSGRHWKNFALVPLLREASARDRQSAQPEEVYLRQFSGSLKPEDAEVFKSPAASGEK
Protocol: In order to identify molecular mechanism of action, KM-568 was tested at 10 µM in three radioligand binding assays: rat cerebral cortex GABA receptor non-selective agonist radioligand, AMPA (α-amino-3-hydroxy-5-methyl-4-isoxazolepropionic acid) receptor agonist radioligand, and NMDA (N-methyl-D-aspartate) receptor antagonist radioligand as well as one functional assay involving a human recombinant TRPV1 receptor expressed in CHO cells (agonist and antagonist effects).
Tests were performed by Eurofins Cerep (Eurofins CEREP SA, Celle-Lévescault, France) as a commercial service. In radioligand assays, rat cerebral cortex GABA receptor as well as rat cerebral cortex AMPA (α-amino-3-hydroxy-5-methyl-4-isoxazolepropionic acid) and NMDA (N-methyl-D-aspartate) receptors with 10 nM [^3H]GABA, 8 nM [^3H]AMPA, and 5 nM [^3H]CGP39653, respectively, were used. The results were detected by means of scintillation counting. In functional assays, a human recombinant TRPV1 receptor expressed in Chinese hamster ovary (CHO) cells with 1 µM capsaicin or 30 nM capsazepine were used. Fluorimetry was used as a detection method.

[5] = system: Salmonella typhimurium strains TA98, TA100, TA1535 and TA1537; assay: Ames microplate format (MPF) assay, overall verdict; conditions: 0.1, 0.2, 0.5 mM; four strains
From the text: as §1
The assay is a liquid microplate modification of the traditional Salmonella test. During the procedure, bacteria are exposed to different concentrations of a test compound for 90 min in a medium containing sufficient histidine to support cell divisions. […]
The test procedure provided by Xenometrix and described in detail elsewhere was followed. […] After the exposure, the number of wells containing bacteria was scored for yellow wells. […]
The fold increase of revertants relative to the solvent control was determined by dividing the mean number of positive wells at each dose by the solvent control at baseline. The solvent control at baseline was calculated as the mean number of positive wells in the solvent control plus one standard deviation (SD). […]

mice = assay: 6-Hz psychomotor seizure model (32 mA, 44 mA); format: in vivo; conditions: for ED50: Mus musculus, ip, 95% confidence interval in parentheses; for 6-Hz (32 mA) Results (protected/tested animals) / 6-Hz (44 mA) Results (protected/tested animals): i.p.
Protocol: The test was performed after 0.25 h (for 32 mA current) or 0.5 h (for 44 mA current) of i.p. administration of compound KM-568. The groups of 8 animals were challenged for a single dose of the tested compounds. In addition, 0.2 ms pulses of electric current at 6 Hz and 32 mA or 44 mA were delivered for 3 sec via corneal electrodes. The mouse was released into an observation cage immediately after stimulation. The electric stimulation in a 6-Hz test causes a minimal clonic phase followed by stereotyped, automatic behaviors. The seizure activity can be described as stun, forelimb clonus, twitching of the vibrissae, and Straub tail. The protection was scored if the mouse resumed its normal activity within 10 sec from the stimulation.

With `C[C@H](O)CNC(=O)/C=C/c1ccccc1` [KM-568, S(+)-(2E)-N-(2-hydroxypropyl)-3-phenylprop-2-enamide] the compound remained unchanged ([1]; after 60 min of incubation with microsomes) was 72.37%, the metabolic stability qualification ([1]; mouse liver microsomes) was “moderate metabolically stable” and the half-life at 20 μM ([1]; pH 7.4, mouse liver microsomes, 20 μM, read-out: half-life time (t1/2)) was 2.14 h. The microsomal CLint at 20 μM ([1]; pH 7.4, mouse liver microsomes, 20 μM, read-out: internal clearance (Clint)) was 13.5 µL/min/mg, the “Results (protected/tested animals)” value ([2]; 10.0 mg/kg) was 1/8 and the “Results (protected/tested animals)” value ([2]; 12.5 mg/kg) was 3/8. The “Results (protected/tested animals)” value ([2]; 15.0 mg/kg) was 6/8, the “Results (protected/tested animals)” value ([2]; 17.5 mg/kg) was 7/8 and the ED50 ([2]; Mus musculus, ip) was 13.2 mg/kg. The fold induction at 90 min, 0.1 mM [3] was 0.1, the fold induction at 90 min, 0.2 mM [3] was 0.9 and the fold induction at 90 min, 0.5 mM [3] was 0.7. The TRPV1 agonist effect [4] was “No significant effects”, the TRPV1 antagonist effect [4] was “No significant effects” and the “mutagenic activity in the Ames MPF assay” value [5] was “did not exhibit mutagenic activity”. The ED50 (mice; 32 mA, 0.25 h, read-out: 6-Hz (32 mA) ED50) was 71.5 mg/kg, the ED50 (mice; 44 mA, 0.5 h, read-out: 6-Hz (44 mA) ED50) was 114 mg/kg and the “6-Hz (32 mA) Results (protected/tested animals)” value (mice; 50 mg/kg, 0.25 h) was 1/8. The “6-Hz (44 mA) Results (protected/tested animals)” value (mice; 50 mg/kg, 0.5 h) was 0/8, the “6-Hz (32 mA) Results (protected/tested animals)” value (mice; 75 mg/kg, 0.25 h) was 3/8 and the “6-Hz (32 mA) Results (protected/tested animals)” value (mice; 87 mg/kg, 0.25 h) was 7/8. For the same compound, the “6-Hz (44 mA) Results (protected/tested animals)” value (mice; 100 mg/kg, 0.5 h) was 3/8, the “6-Hz (32 mA) Results (protected/tested animals)” value (mice; 110 mg/kg, 0.25 h) was 8/8 and the “6-Hz (44 mA) Results (protected/tested animals)” value (mice; 150 mg/kg, 0.5 h) was 6/8. For the same compound, the “6-Hz (44 mA) Results (protected/tested animals)” value (mice; 200 mg/kg, 0.5 h) was 8/8.
